Molecules are shown by their SMILES.

Experiment [1] deals with T1, Polyunsaturated fatty acid 5-lipoxygenase (Rattus norvegicus) (UniProt P12527).
T1 sequence (whole entry): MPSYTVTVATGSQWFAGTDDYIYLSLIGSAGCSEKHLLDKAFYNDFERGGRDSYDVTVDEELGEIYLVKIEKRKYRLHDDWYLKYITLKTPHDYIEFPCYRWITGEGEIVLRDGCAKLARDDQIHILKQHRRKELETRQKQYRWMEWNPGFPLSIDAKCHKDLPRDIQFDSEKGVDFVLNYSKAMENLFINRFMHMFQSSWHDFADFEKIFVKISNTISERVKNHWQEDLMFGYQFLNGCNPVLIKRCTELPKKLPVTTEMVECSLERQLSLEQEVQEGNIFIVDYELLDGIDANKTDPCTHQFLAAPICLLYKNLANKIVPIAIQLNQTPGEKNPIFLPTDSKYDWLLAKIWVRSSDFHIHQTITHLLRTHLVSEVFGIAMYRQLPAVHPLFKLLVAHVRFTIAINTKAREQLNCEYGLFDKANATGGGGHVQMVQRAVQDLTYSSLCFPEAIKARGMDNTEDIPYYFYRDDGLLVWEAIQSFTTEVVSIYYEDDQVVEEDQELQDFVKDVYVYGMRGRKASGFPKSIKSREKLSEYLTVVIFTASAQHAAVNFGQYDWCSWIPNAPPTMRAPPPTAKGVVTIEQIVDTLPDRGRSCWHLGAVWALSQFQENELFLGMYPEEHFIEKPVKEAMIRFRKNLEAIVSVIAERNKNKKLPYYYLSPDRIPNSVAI
Kind of experiment: Inhibition of rat 5-lipoxygenase in rat RBL1 cells at 30 uM. The experiment is classed as cell-based. The following applies: RBL-1.

The target in experiment [2] is T1, Polyunsaturated fatty acid 5-lipoxygenase (Rattus norvegicus). The note with it: RBL-1, 15 uM.
Description: Inhibition of rat 5-lipoxygenase in rat RBL1 cells at 15 uM

The inhibition is the relative decrease from the control value, in per cent. Lower therefore signals a weak effect. With `COC(=O)c1ccc(O)c(Oc2cc(C(=O)OC)ccc2O)c1`, the inhibition in experiment [1] was 64%. Consider `O=C1CCN(c2ccccc2)N1`, for which, in experiment [2], the inhibition was determined as 50%.
